We go through two compounds from ChEMBL document CHEMBL3351286, “Strategies to inhibit tumor associated integrin receptors: rationale for dual and multi-antagonists” (J Med Chem, 2014).

Assay [1] has as its target Integrin alpha-IIb/beta-3 (Homo sapiens, UniProt P05106+P08514). As to the kind of experiment: Antagonist activity at alpha2bbeta3 integrin receptor (unknown origin) by cell-free ELISA. Type of assay: protein-complex assay.
For a further assay, the target named is Integrin alpha-V/beta-1 (Homo sapiens, UniProt P05556+P06756). The assay can be described thus: Antagonist activity at alphavbeta1 integrin receptor (unknown origin) by cell-free ELISA. It counts as protein-complex assay.
In assay [2] the target is T1, Integrin alpha-V/beta-5 (Homo sapiens, UniProt P06756+P18084). The assay can be described thus: Antagonist activity at alphavbeta5 integrin receptor (unknown origin) by cell-based ELISA.
T1 sequence (P06756 31-889 limits assumed): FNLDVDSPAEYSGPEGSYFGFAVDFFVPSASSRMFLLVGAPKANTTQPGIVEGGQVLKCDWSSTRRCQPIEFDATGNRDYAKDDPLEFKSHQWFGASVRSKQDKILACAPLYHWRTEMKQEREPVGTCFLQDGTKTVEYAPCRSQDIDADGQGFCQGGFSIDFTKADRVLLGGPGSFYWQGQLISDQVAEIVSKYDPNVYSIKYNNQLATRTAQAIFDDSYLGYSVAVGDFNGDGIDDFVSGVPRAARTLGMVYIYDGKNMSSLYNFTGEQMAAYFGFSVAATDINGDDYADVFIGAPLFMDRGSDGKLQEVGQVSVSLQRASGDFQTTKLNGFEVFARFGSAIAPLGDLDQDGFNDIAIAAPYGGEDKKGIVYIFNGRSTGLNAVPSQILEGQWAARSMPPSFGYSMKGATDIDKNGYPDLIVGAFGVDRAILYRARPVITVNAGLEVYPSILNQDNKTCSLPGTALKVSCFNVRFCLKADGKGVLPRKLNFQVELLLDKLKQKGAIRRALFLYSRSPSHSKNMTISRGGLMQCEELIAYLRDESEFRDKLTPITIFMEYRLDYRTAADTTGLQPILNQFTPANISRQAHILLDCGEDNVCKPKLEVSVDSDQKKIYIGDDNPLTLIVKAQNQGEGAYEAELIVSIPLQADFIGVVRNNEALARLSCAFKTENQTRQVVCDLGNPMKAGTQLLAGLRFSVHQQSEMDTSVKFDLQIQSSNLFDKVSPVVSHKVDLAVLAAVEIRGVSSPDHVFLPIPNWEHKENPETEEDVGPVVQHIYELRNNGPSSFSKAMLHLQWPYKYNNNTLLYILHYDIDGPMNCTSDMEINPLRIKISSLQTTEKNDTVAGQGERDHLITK
T1 sequence (P06756 891-1048 limits assumed): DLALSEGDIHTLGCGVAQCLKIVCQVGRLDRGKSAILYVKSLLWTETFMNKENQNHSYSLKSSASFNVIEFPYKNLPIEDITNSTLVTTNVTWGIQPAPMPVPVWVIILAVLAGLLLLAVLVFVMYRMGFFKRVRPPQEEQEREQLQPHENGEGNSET
T1 sequence (P18084 24-799 limits assumed): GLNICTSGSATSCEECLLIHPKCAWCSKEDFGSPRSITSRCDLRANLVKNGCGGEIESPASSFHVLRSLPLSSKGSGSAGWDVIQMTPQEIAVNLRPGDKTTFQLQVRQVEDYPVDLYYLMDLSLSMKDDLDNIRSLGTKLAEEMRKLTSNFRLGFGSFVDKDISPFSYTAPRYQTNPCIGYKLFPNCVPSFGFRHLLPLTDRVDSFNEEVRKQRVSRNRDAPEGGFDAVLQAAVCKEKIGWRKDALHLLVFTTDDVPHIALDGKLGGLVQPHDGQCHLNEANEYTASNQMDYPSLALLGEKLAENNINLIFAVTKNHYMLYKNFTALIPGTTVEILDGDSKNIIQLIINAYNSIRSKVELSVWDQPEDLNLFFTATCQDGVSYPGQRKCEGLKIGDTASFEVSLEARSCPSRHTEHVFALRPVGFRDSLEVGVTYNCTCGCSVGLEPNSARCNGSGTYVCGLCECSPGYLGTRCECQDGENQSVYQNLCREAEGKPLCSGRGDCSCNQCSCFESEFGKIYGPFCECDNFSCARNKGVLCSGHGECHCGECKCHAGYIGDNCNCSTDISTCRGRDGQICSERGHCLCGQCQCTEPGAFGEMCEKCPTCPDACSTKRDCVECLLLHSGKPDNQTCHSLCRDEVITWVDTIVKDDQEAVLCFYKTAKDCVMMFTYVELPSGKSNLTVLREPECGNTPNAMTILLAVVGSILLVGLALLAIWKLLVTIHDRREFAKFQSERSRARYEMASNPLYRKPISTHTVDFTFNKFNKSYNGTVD
In the next assay the target is Integrin alpha-V/beta-8 (Homo sapiens, UniProt P06756+P26012). As to the kind of experiment: Antagonist activity at alphavbeta8 integrin receptor (unknown origin) by cell-free ELISA. Type of assay: protein-complex assay.
Chain of Integrin alpha-V/beta-8 (P06756 31-889 limits assumed): as the sequence (P06756 31-889 limits assumed) above
Chain of Integrin alpha-V/beta-8 (P06756 891-1048 limits assumed): as the sequence (P06756 891-1048 limits assumed) above
Chain of Integrin alpha-V/beta-8 (P26012 43-769 limits assumed): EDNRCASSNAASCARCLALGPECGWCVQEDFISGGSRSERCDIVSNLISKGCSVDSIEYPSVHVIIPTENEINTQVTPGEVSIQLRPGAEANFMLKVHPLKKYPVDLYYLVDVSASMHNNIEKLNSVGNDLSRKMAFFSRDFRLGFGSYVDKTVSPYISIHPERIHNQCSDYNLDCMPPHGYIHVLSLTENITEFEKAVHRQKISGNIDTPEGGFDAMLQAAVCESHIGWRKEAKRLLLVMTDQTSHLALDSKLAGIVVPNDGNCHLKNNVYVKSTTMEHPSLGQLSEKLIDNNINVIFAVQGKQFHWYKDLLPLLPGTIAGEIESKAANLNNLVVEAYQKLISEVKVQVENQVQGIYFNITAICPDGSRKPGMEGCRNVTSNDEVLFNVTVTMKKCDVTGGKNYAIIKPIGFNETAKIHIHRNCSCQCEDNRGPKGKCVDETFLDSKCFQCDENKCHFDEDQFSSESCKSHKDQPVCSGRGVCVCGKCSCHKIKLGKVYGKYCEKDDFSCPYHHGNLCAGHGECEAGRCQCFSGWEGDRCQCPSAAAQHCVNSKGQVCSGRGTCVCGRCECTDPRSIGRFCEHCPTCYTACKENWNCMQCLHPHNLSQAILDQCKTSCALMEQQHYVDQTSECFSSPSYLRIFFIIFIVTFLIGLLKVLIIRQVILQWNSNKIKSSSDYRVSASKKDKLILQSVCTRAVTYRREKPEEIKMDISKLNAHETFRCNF
The next assay has as its target Integrin alpha2/beta1 (Homo sapiens, UniProt P05556+P17301). As to the kind of experiment: Antagonist activity at alpha2beta1 integrin receptor (unknown origin) by cell-free ELISA. Type of assay: protein-complex assay.
In assay [3] the target is Integrin alpha-10/Integrin beta-1 (Homo sapiens, UniProt O75578+P05556). As to the kind of experiment: Antagonist activity at alpha10beta1 integrin receptor (unknown origin) by cell-free ELISA. Type of assay: protein-complex assay.
A further assay deals with Integrin alpha-V/beta-3 (Homo sapiens, UniProt P05106+P06756). As to the kind of experiment: Antagonist activity at alphavbeta3 integrin receptor (unknown origin) by cell-free ELISA. Type of assay: protein-complex assay.
The target in assay [4] is T1, Integrin alpha-V/beta-5. As to the kind of experiment: Antagonist activity at alphavbeta5 integrin receptor (unknown origin) by cell-free ELISA. Type of assay: protein-complex assay.
The target in the next assay is Integrin alpha-5/beta-1 (Homo sapiens, UniProt P05556+P08648). The assay can be described thus: Antagonist activity at alpha5beta1 integrin receptor (unknown origin) by cell-free ELISA. Type of assay: protein-complex assay.
The target of a further assay is Integrin alpha-V/beta-6 (Homo sapiens, UniProt P06756+P18564). As to the kind of experiment: Antagonist activity at alphavbeta6 integrin receptor (unknown origin) by cell-free ELISA. Type of assay: protein-complex assay.
A further assay deals with T2, Integrin alpha-4/beta-7 (Homo sapiens, UniProt P13612+P26010).
T2 sequence (P13612 whole entry): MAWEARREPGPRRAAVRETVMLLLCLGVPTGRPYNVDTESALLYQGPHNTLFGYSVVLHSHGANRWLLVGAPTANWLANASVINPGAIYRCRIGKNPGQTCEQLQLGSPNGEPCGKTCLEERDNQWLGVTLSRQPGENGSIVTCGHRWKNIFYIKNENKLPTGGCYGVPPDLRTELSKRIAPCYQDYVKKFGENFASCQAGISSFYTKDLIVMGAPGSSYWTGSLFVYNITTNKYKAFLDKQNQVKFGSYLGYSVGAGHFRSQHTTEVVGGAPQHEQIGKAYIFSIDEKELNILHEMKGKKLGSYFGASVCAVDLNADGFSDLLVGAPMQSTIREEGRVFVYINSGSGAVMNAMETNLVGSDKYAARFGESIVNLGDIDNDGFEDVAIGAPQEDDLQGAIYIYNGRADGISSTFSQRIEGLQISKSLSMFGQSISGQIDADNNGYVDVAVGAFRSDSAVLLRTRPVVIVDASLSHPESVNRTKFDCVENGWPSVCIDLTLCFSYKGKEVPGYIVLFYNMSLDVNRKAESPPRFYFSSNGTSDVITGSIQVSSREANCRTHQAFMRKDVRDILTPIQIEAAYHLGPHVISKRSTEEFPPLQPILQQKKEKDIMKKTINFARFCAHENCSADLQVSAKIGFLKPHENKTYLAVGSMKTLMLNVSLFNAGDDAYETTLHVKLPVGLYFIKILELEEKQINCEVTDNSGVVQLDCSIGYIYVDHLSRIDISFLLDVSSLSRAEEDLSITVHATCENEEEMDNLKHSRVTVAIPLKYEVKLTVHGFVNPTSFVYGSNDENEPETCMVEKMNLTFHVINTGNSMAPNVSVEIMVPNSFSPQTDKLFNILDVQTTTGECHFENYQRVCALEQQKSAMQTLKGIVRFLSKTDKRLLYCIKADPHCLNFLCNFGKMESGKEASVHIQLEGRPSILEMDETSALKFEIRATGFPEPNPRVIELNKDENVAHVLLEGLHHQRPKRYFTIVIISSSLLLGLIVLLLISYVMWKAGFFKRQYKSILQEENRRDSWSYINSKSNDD
T2 sequence (P26010 whole entry): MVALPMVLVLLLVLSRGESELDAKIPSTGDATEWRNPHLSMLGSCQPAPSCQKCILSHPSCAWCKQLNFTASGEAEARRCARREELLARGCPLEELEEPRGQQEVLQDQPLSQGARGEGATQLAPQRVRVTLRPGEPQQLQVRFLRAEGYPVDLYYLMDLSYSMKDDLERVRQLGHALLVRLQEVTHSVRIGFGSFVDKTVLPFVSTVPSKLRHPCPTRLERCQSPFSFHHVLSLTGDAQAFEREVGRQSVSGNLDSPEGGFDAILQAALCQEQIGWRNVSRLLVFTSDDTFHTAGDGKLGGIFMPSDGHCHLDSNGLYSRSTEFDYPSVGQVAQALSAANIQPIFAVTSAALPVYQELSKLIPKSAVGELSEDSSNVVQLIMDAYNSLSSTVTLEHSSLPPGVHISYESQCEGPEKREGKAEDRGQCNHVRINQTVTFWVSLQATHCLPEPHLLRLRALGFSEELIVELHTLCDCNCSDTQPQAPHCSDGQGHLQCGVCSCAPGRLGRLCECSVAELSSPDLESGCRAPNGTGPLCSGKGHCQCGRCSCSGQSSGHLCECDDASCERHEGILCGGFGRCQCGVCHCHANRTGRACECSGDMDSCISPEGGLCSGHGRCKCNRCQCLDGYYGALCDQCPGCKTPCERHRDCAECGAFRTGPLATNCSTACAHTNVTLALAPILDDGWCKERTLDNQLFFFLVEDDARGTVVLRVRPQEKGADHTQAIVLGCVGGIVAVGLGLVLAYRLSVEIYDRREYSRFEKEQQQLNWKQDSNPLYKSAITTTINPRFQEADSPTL
The assay can be described thus: Antagonist activity at alpha4beta7 integrin receptor (unknown origin) by cell-free ELISA. Type of assay: protein-complex assay.

pIC50: −log10 of the molar value.

Chain of Integrin alpha2/beta1 (P05556 whole entry): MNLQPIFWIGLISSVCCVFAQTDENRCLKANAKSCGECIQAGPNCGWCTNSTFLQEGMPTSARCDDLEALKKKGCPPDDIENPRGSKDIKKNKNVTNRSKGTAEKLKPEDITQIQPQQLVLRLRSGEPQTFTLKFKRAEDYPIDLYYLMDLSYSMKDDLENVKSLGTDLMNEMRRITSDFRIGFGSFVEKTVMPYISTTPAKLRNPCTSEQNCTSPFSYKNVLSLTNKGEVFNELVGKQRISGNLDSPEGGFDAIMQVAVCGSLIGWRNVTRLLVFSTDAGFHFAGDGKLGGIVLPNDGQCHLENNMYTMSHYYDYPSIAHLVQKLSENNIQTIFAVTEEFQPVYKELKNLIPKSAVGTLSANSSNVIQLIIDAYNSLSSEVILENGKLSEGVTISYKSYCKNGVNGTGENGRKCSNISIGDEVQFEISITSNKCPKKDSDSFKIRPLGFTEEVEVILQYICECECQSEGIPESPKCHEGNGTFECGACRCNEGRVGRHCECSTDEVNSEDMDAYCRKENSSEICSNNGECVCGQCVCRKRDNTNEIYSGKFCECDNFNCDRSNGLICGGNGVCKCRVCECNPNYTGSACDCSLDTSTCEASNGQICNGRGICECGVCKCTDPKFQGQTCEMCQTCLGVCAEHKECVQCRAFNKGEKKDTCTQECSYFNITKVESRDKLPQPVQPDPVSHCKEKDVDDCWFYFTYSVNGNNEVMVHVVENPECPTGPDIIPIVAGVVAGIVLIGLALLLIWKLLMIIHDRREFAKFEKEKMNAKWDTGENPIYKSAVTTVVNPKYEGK
Chain of Integrin alpha2/beta1 (P17301 whole entry): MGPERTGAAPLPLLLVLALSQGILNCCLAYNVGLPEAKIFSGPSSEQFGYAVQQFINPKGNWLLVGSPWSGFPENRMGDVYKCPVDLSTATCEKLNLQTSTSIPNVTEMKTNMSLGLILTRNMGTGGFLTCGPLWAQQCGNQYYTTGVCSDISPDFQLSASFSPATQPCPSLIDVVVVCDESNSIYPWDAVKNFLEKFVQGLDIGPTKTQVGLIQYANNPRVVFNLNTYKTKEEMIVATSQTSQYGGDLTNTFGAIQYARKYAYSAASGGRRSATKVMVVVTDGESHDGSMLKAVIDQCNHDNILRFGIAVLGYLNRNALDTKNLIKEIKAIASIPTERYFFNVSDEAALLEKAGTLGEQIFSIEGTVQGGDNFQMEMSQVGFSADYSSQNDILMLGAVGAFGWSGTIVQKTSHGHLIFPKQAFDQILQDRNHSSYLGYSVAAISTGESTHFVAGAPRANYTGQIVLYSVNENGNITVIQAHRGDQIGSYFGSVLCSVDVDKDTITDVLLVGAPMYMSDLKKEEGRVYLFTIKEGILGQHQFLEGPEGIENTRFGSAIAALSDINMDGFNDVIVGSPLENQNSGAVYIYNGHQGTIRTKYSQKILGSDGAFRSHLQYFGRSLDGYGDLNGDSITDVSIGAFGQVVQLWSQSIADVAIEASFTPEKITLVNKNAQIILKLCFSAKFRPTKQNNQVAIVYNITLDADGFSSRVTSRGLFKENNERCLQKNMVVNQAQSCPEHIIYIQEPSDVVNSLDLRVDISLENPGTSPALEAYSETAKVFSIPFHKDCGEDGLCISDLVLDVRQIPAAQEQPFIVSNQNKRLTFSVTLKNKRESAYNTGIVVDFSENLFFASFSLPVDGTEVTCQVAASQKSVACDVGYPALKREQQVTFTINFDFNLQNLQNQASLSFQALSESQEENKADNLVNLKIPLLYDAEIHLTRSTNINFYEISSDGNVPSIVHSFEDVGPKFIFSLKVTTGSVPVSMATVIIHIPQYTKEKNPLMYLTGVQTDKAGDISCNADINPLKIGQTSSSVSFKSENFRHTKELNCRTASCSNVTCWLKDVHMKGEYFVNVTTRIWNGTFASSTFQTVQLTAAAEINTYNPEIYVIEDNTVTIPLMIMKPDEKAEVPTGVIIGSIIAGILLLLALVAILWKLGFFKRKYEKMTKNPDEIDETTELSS

For `CC(C)(C)c1cc(Br)cc([C@H](CC(=O)O)NC(=O)CNC(=O)c2cc(O)cc(NC3=NCC(O)CN3)c2)c1` (some centres undefined), the pIC50 was less than 5.30 in assay [1]; 8.74 at Integrin alpha-V/beta-1; 7.21 at Integrin alpha-V/beta-5 [2]; 9.70 at Integrin alpha-V/beta-8; less than 5.30 against Integrin alpha2/beta1; less than 5.30 in assay [3].

For the compound `COc1ccc(S(=O)(=O)N[C@@H](CNc2nc(C)nc(N3CCC(c4ccc5c(n4)NCCC5)CC3)c2C)C(=O)O)cc1` [GLPG-0187], the pIC50 at Integrin alpha-V/beta-3 was 8.43; on Integrin alpha-V/beta-5 [4] it was 8.70; against Integrin alpha-5/beta-1, 8.11; on Integrin alpha-V/beta-6 it was 8.85; at Integrin alpha-V/beta-1 it was 8.89; against Integrin alpha-V/beta-8 it was 8.92. Also, the pIC50 at Integrin alpha2/beta1 and against Integrin alpha-4/beta-7 was less than 5.00 in each case.
